Data as given in the supplement of paper PMC8612539.
≈ marks a conversion by molar mass, not a printed value.

Assays:
[1] = tested on: Mannheimia haemolytica; test: minimum inhibitory concentration (MIC)
Protocol: (§1)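 Broth microdilution MIC (Sensititre BOPO7F bovine plate, CLSI methods) of 19 antimicrobials against field isolates of P. multocida, M. haemolytica, H. somni (deep nasopharyngeal swabs) and E. coli, Enterococcus spp. (rectal swabs) from weaned dairy heifers. Incubation 16-24 h at 35 C. MIC is the lowest concentration preventing visible growth. Values with <= or > lie at the tested range limits. Trimethoprim-sulfamethoxazole is given as the trimethoprim component of a 1:19 mixture.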

[2] = tested on: Enterococcus spp.; test: minimum inhibitory concentration (MIC)
Protocol: as §1

NC[C@@H]1O[C@H](O[C@H]2[C@@H](O)[C@H](O[C@@H]3[C@@H](O)[C@H](N)C[C@H](N)[C@H]3O[C@H]3O[C@H](CN)[C@@H](O)[C@H](O)[C@H]3N)O[C@@H]2CO)[C@H](N)[C@@H](O)[C@@H]1O [Neomycin]
minimum inhibitory concentration [µg/mL]
Settings	[1]	[2]
isolate (source animal id): 2	–	≤ 4
isolate (source animal id): 35	–	> 32
isolate (source animal id): 42	–	> 32
isolate (source animal id): 44	–	> 32
isolate (source animal id): 79	–	> 32
isolate (source animal id): 88	–	8 (≈ 13 µM)
isolate (source animal id): 91	–	8 (≈ 13 µM)
isolate (source animal id): 92	–	16 (≈ 26 µM)
isolate (source animal id): 111	–	16 (≈ 26 µM)
isolate (source animal id): 122	–	> 32
isolate (source animal id): 123	–	16 (≈ 26 µM)
isolate (source animal id): 133	–	32 (≈ 52.1 µM)
isolate (source animal id): 158	–	> 32
isolate (source animal id): 168	–	32 (≈ 52.1 µM)
isolate (source animal id): 169	–	16 (≈ 26 µM)
isolate (source animal id): 171	–	8 (≈ 13 µM)
isolate (source animal id): 175	–	> 32
isolate (source animal id): 177	–	32 (≈ 52.1 µM)
isolate (source animal id): 181	–	32 (≈ 52.1 µM)
isolate (source animal id): 182	–	32 (≈ 52.1 µM)
isolate (source animal id): 183	–	32 (≈ 52.1 µM)
isolate (source animal id): 187	–	16 (≈ 26 µM)
isolate (source animal id): 190	–	32 (≈ 52.1 µM)
isolate (source animal id): 194	–	8 (≈ 13 µM)
isolate (source animal id): 195	–	32 (≈ 52.1 µM)
isolate (source animal id): 197	–	16 (≈ 26 µM)
isolate (source animal id): 211	–	> 32
isolate (source animal id): 214	–	> 32
isolate (source animal id): 222	–	> 32
isolate (source animal id): 223	–	16 (≈ 26 µM)
isolate (source animal id): 228	–	> 32
isolate (source animal id): 230	–	> 32
isolate (source animal id): 235	–	> 32
isolate (source animal id): 236	–	8 (≈ 13 µM)
isolate (source animal id): 239	–	≤ 4
isolate (source animal id): 241	–	> 32
isolate (source animal id): 244	–	8 (≈ 13 µM)
isolate (source animal id): 246	–	16 (≈ 26 µM)
isolate (source animal id): 247	–	> 32
isolate (source animal id): 250	–	16 (≈ 26 µM)
isolate (source animal id): 252	–	> 32
isolate (source animal id): 268	–	8 (≈ 13 µM)
isolate (source animal id): 282	–	16 (≈ 26 µM)
isolate (source animal id): 285	–	> 32
isolate (source animal id): 288	8 (≈ 13 µM)	–
isolate (source animal id): 289	–	16 (≈ 26 µM)
isolate (source animal id): 290	–	16 (≈ 26 µM)
isolate (source animal id): 291	8 (≈ 13 µM)	–
isolate (source animal id): 293	> 32	–
isolate (source animal id): 296	–	32 (≈ 52.1 µM)
isolate (source animal id): 298	> 32	16 (≈ 26 µM)
isolate (source animal id): 299	> 32	–
isolate (source animal id): 300	≤ 4	–
isolate (source animal id): 301	–	16 (≈ 26 µM)
isolate (source animal id): 302	> 32	–
isolate (source animal id): 304	> 32	–
isolate (source animal id): 306	≤ 4	–
isolate (source animal id): 308	8 (≈ 13 µM)	–
isolate (source animal id): 309	8 (≈ 13 µM)	–
isolate (source animal id): 310	–	> 32
isolate (source animal id): 313	> 32	–
isolate (source animal id): 318	> 32	–
isolate (source animal id): 320	≤ 4	16 (≈ 26 µM)
isolate (source animal id): 321	> 32	–
isolate (source animal id): 323	> 32	–
isolate (source animal id): 324	> 32	–
isolate (source animal id): 326	> 32	–
isolate (source animal id): 328	> 32	–
isolate (source animal id): 329	> 32	–
isolate (source animal id): 331	–	> 32
isolate (source animal id): 333	> 32	16 (≈ 26 µM)
isolate (source animal id): 335	> 32	–
isolate (source animal id): 338	> 32	–
isolate (source animal id): 341	–	> 32
